Patent publication US20140011799A1 (Bristol-Myers Squibb Company, priority 2012, published 2014)
Where two headings read alike, the source gives them in different places.

What was measured:
[1] = molecular target: T1, Endothelial lipase (EL) (Homo sapiens, UniProt Q9Y5X9); experiment: Endothelial lipase (EL) enzymatic assay, fluorescent substrate A10070 in DMPG vesicles; type: biochemical; settings: compound preincubated 30 min at 37° C
T1 construct: HT-1080 cells that were transformed using RAGE technology (Athersys) to overexpress endogenous EL; endogenous in cells; conditioned medium used
T1 sequence (Q9Y5X9 21-500): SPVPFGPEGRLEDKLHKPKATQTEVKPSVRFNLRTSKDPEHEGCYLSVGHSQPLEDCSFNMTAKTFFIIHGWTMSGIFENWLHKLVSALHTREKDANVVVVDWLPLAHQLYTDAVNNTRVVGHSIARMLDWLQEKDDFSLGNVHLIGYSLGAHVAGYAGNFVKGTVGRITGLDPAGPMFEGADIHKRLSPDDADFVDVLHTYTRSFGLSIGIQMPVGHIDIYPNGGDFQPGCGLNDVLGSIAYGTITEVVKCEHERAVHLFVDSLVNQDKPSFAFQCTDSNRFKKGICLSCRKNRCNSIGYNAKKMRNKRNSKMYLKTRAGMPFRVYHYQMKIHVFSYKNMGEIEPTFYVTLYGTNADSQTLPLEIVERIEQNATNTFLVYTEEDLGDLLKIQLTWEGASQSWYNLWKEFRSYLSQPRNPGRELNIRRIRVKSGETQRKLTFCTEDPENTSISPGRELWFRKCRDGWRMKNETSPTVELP
How it was run: (§1)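 EL from conditioned medium of HT-1080 cells engineered to overexpress endogenous EL; HL partially purified from conditioned medium of HL-overexpressing COS cells. Enzyme preincubated with compound 30 min at 37° C in 50 mM HEPES pH 8.0, 50 mM NaCl, 1 mM CaCl2; DMPG vesicles carrying FRET substrate (0.11 mole fraction) then added.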

[2] = molecular target: T2, hepatic lipase (HL) (Homo sapiens, UniProt P11150); experiment: Hepatic lipase (HL) enzymatic assay, fluorescent substrate A10070 in DMPG vesicles; type: biochemical; settings: compound preincubated 30 min at 37° C
T2 construct: made in house; host or cells: COS cells (conditioned medium, partially purified)
T2 sequence (P11150 23-499): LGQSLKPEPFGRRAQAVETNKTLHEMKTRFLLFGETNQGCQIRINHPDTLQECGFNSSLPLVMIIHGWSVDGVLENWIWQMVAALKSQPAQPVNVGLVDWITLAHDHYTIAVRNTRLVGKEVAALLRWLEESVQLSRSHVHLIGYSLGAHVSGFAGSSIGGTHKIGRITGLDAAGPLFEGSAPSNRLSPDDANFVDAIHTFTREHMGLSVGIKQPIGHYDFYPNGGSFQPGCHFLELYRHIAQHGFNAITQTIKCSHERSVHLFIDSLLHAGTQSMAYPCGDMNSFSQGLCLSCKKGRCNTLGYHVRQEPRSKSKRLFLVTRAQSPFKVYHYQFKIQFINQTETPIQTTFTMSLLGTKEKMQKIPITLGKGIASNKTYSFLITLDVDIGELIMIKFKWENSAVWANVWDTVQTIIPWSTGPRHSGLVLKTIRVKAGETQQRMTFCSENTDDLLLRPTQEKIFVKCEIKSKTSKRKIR
How it was run: as §1

[3] = EL from conditioned media of HT-1080 cells, read-out: EL IC50
[4] = HL partially purified from conditioned media of COS cells, read-out: HL IC50

SMILES: CC1(CS(=O)(=O)C(c2nnc(CNS(N)(=O)=O)o2)c2nc3ccc(-c4ccc(C(=O)N5CCOCC5)cc4)cc3s2)COC1 (centres unmarked) [Example 135, N-((5-((((3-methyl-3-oxetanyl)methyl)sulfonyl)(6-(4-(4-morpholinylcarbonyl)phenyl)-1,3-benzothiazol-2-yl)methyl)-1,3,4-oxadiazol-2-yl)methyl)sulfamide]
- IC50 [1, 3]: < 10 nM
- IC50 [2, 4]: 91 nM

SMILES: NS(=O)(=O)NCc1nnc(C(c2nc3ccc(-c4cc(F)nc(F)c4)cc3s2)S(=O)(=O)Cc2ccccc2)o1 (centres unmarked) [Example 145, N-((5-((benzylsulfonyl)(6-(2,6-difluoro-4-pyridinyl)-1,3-benzothiazol-2-yl)methyl)-1,3,4-oxadiazol-2-yl)methyl)sulfamide]
- IC50 [1, 3]: < 10 nM
- IC50 [2, 4]: 77 nM

SMILES: NS(=O)(=O)NCc1nnc(C(c2nc3ccc(C(=O)N4CCOCC4)cc3s2)S(=O)(=O)Cc2ccccc2)o1 (centres unmarked) [Example 189, N-((5-((Benzylsulfonyl)(6-(4-morpholinylcarbonyl)-1,3-benzothiazol-2-yl)methyl)-1,3,4-oxadiazol-2-yl)methyl)sulfamide]
- IC50 [1, 3]: 13 nM
- IC50 [2, 4]: 2370 nM

SMILES: NS(=O)(=O)NCc1nnc(C(c2nc3ccc(-c4ccc(F)c(Cl)c4)cc3s2)S(=O)(=O)Cc2ccccc2)o1 (centres unmarked) [Example 139, N-((5-((benzylsulfonyl)(6-(3-chloro-4-fluorophenyl)-1,3-benzothiazol-2-yl)methyl)-1,3,4-oxadiazol-2-yl)methyl) sulfamide]
- IC50 [1, 3]: < 10 nM
- IC50 [2, 4]: < 10 nM

SMILES: O=C1NC(=O)C(Cc2nnc(C(c3nc4ccc(-c5ccccc5)c(F)c4s3)S(=O)(=O)Cc3ccccc3)o2)S1 (centres unmarked) [Example 162, 5-((5-((benzylsulfonyl)(7-fluoro-6-phenyl-1,3-benzothiazol-2-yl)methyl)-1,3,4-oxadiazol-2-yl)methyl)-1,3-thiazolidine-2,4-dione]
- IC50 [1, 3]: < 10 nM
- IC50 [2, 4]: < 10 nM

SMILES: NS(=O)(=O)NCc1nnc(C(c2nc3ccc(-c4cc(F)cc(Cl)c4)cc3s2)S(=O)(=O)Cc2ccccc2)o1 (centres unmarked) [Example 144, N-((5-((benzylsulfonyl)(6-(3-chloro-5-fluorophenyl)-1,3-benzothiazol-2-yl)methyl)-1,3,4-oxadiazol-2-yl)methyl) sulfamide]
- IC50 [1, 3]: < 10 nM
- IC50 [2, 4]: < 10 nM

SMILES: COCCS(=O)(=O)C(c1nnc(CNS(N)(=O)=O)o1)c1nc2ccc(-c3cnn(C)c3)cc2s1 (centres unmarked) [Example 116, N-((5-(((2-methoxyethyl)sulfonyl)(6-(1-methyl-1H-pyrazol-4-yl)-1,3-benzothiazol-2-yl)methyl)-1,3,4-oxadiazol-2-yl)methyl) sulfamide]
- IC50 [1, 3]: < 10 nM
- IC50 [2, 4]: 143 nM

SMILES: CC(C)(C)OC(=O)c1cccc(-c2ccc3nc(C(c4nnc(CC5(C)NC(=O)NC5=O)o4)S(C)(=O)=O)sc3c2)c1 (centres unmarked) [Example 203, tert-butyl 3-{2-[methanesulfonyl ({5-[(4-methyl-2,5-dioxoimidazolidin-4-yl)methyl]-1,3,4-oxadiazol-2-yl})methyl]-1,3-benzothiazol-6-yl}benzoate]
- IC50 [1, 3]: 33 nM
- IC50 [2, 4]: 2 nM

SMILES: NS(=O)(=O)NCc1nnc(C(c2nc3ccc(-c4cncnc4)cc3s2)S(=O)(=O)Cc2ccccc2)o1 (centres unmarked) [Example 125, N-((5-((benzylsulfonyl)(6-(5-pyrimidinyl)-1,3-benzothiazol-2-yl)methyl)-1,3,4-oxadiazol-2-yl)methyl) sulfamide]
- IC50 [1, 3]: < 10 nM
- IC50 [2, 4]: 103 nM

SMILES: CS(=O)(=O)C(c1nnc(CC2SC(=O)NC2=O)o1)c1nc2ccc(Br)cc2s1 (centres unmarked) [Example 100, 5-((5-((6-bromo-1,3-benzothiazol-2-yl)(methylsulfonyl)methyl)-1,3,4-oxadiazol-2-yl)methyl)-1,3-thiazolidine-2,4-dione]
- IC50 [1, 3]: 77 nM
- IC50 [2, 4]: 291 nM

SMILES: COCc1ccc(-c2ccc3nc(C(c4nnc(CNS(N)(=O)=O)o4)S(=O)(=O)Cc4ccc(OC(F)(F)F)cc4)sc3c2)cc1 (centres unmarked) [Example 237, N-{[5-({6-[4-(methoxymethyl)phenyl]-1,3-benzothiazol-2-yl}[4-(trifluoromethoxy)phenyl]methanesulfonylmethyl)-1,3,4-oxadiazol-2-yl]methyl} aminosulfonamide]
- IC50 [1, 3]: 1 nM
- IC50 [2, 4]: 2 nM

SMILES: NS(=O)(=O)NCc1nnc(C(c2nc3ccc(-c4cc(Cl)cc(Cl)c4)cc3s2)S(=O)(=O)Cc2ccccc2)o1 (centres unmarked) [Example 143, N-((5-((benzylsulfonyl)(6-(3,5-dichlorophenyl)-1,3-benzothiazol-2-yl)methyl)-1,3,4-oxadiazol-2-yl)methyl) sulfamide]
- IC50 [1, 3]: < 10 nM
- IC50 [2, 4]: < 10 nM

SMILES: NS(=O)(=O)NCc1nnc(C(c2nc3ccc(-c4cccc(C(=O)N5CCC(=O)CC5)c4)cc3s2)S(=O)(=O)CCC(F)(F)F)o1 (centres unmarked) [Example 194, N-((5-((6-(3-((4-oxo-1-piperidinyl)carbonyl)phenyl)-1,3-benzothiazol-2-yl)((3,3,3-trifluoropropyl)sulfonyl)methyl)-1,3,4-oxadiazol-2-yl)methyl) sulfamide]
- IC50 ([1]; EL IC50, EL from conditioned media of HT-1080 cells): < 10 nM
- IC50 ([2]; HL IC50, HL partially purified from conditioned media of COS cells): 171 nM

SMILES: CC1(O)CN(C(=O)c2cccc(-c3ccc4nc(C(c5nnc(CNS(N)(=O)=O)o5)S(=O)(=O)CCC(F)(F)F)sc4c3)c2)C1 (centres unmarked) [Example 192, N-((5-((6-(3-((3-Hydroxy-3-methyl-1-azetidinyl)carbonyl)phenyl)-1,3-benzothiazol-2-yl)((3,3,3-trifluoropropyl)sulfonyl)methyl)-1,3,4-oxadiazol-2-yl)methyl)sulfamide]
- IC50 [1, 3]: < 10 nM
- IC50 [2, 4]: 81 nM

SMILES: CS(=O)(=O)C(c1nnc(CNS(N)(=O)=O)o1)c1nc2ccc(-c3cccc(C(=O)NC4CCC4)c3)cc2s1 (centres unmarked) [Example 261, N-cyclobutyl-3-{2-[methanesulfonyl({5-[(sulfamoylamino)methyl]-1,3,4-oxadiazol-2-yl})methyl]-1,3-benzothiazol-6-yl}benzamide]
- IC50 [1, 3]: 3 nM
- IC50 [2, 4]: 5 nM

SMILES: CC(C)(C)OC(=O)NS(=O)(=O)NCc1nnc(C(c2nc3ccc(-c4ccc(Cl)cc4)cc3s2)S(=O)(=O)Cc2ccccc2)o1 (centres unmarked) [Example 123, tert-butyl (((5-((benzylsulfonyl)(6-(4-chlorophenyl)-1,3-benzothiazol-2-yl)methyl)-1,3,4-oxadiazol-2-yl)methyl)sulfamoyl)carbamate]
- IC50 [1, 3]: < 10 nM
- IC50 [2, 4]: < 10 nM

SMILES: CS(=O)(=O)C(c1nnc(CNS(N)(=O)=O)o1)c1nc2ccc(-c3cccc(C(=O)NC4CCC(O)CC4)c3)cc2s1 (centres unmarked) [Example 258, N-(4-hydroxycyclohexyl)-3-{2-[methanesulfonyl({5-[(sulfamoylamino)methyl]-1,3,4-oxadiazol-2-yl})methyl]-1,3-benzothiazol-6-yl}benzamide]
- IC50 [1, 3]: 8 nM
- IC50 [2, 4]: 35 nM

SMILES: CC1(Cc2nnc(C(c3nc4ccc(-c5cccc(C(=O)N6CCC(O)CC6)c5)cc4s3)S(C)(=O)=O)o2)NC(=O)NC1=O (centres unmarked) [Example 212, 5-{[5-({6-[3-(4-hydroxypiperidine-1-carbonyl)phenyl]-1,3-benzothiazol-2-yl} (methanesulfonyl)methyl)-1,3,4-oxadiazol-2-yl]methyl}-5-methyl-imidazolidine-2,4-dione]
- IC50 [1, 3]: 2 nM
- IC50 [2, 4]: 1100 nM

SMILES: CS(=O)(=O)C(c1nnc(CNS(N)(=O)=O)o1)c1nc2ccc(-c3cccc(C(=O)N4CCC4)c3)cc2s1 (centres unmarked) [Example 264, N-{[5-({6-[3-(azetidine-1-carbonyl)phenyl]-1,3-benzothiazol-2-yl} (methanesulfonyl)methyl)-1,3,4-oxadiazol-2-yl]methyl}aminosulfonamide]
- IC50 [1, 3]: 19 nM
- IC50 [2, 4]: 37 nM
